Source: patent publication US8637038B2, “Methods for inhibiting allograft rejection” (Rigel Pharmaceuticals, Inc., priority 2011, dated 2014)
Read-outs that look alike come from different tables or passages of the source.

How the values were obtained:
Type in all cases: cell-based
[1] = tested on: JAK2; assay: EPO-dependent survival of cultured human erythroid progenitor cells (CHEP); conditions: for EC50: Homo sapiens, Erythroid progenitor cell, read-out: EPO CHEP Survival EC50
Experimental: (§1) The erythropoietin (EPO)-dependent survival of cultured human erythroid progenitor cells (CHEPs) was determined using CellTiter-Glo® Luminescent Cell Viability Assay (Promega). Human primary T cell activation was assessed by measuring IL-2 production by ELISA (R&D Systems, Minneapolis, Minn., USA) following plate-bound anti-CD3 and anti-CD28 stimulation (Anti-Human CD3; BD Biosciences; Anti-Human CD28; Immunotech; Prague, Czech Republic). The enzymatic activity of tryptase released by human cultured mast cells (CHMCs) upon stimulation with IgE was quantified by cleavage of the synthetic fluorescent peptide substrate Z-Ala-Lys-Arg-7-amino-4-methylcoumarin (MP Biomedicals, Solon, Ohio, USA) in tryptase buffer. B-cell receptor-dependent Erk phosphorylation was measured in Ramos cells by intracellular FACS (anti-pT202/pY204-ERK1/2-AlexaFluor488; BD Biosciences). Cell proliferation assays were performed using A549 epithelial cells and H1299 lung carcinoma cells using nuclear staining to measure cell numbers (4′6-diamidino-2-phenylindole, dihydrochloride (DAPI; Invitrogen, Darmstadt, Germany)).

[2] = tested on: JAK1/2/Tyk2; assay: IL-6 whole blood lymphocytes phospho-STAT3; conditions: Lymphocyte, read-out: IL-6 whole blood lymphocytes phospho-STAT3 EC50
Experimental: The activity of Compound III and Compound I was assessed in a panel of cell-based assays. Compound III and Compound I are selective inhibitors of JAK1/3-dependent signaling. Data for a non-selective JAK inhibitor (Compound IV) is shown for reference. Mixed lymphocyte reactions (MLRs) were performed by incubating freshly prepared naive human peripheral blood lymphocytes from one donor with CD80+/CD86+ mature Dendritic Cells derived from a different donor for 5 days. The percentage of CD3+/CD71+ (anti-CD3-APC, Clone HIT3a, anti-CD 71-FITC, Clone M-A712; BD Biosciences, San Jose, Calif.) proliferating cells was assessed by fluorescence-activated cell sorting (FACS; BD Bioscience). Interleukin-2 (IL-2)-dependent human primary T cell proliferation was assessed using CellTiter-Glo® Luminescent Cell Viability Assay (Promega, Madison, Wis.). STAT phosphorylation induced by different cytokines in human primary T cells was measured by intracellular FACS analysis (anti-pY694-STAT5 AlexaFluor488, anti-pY701-STAT1 AlexaFluor488, and anti-pY693-STAT4 AlexaFluor488; BD Biosciences). […] Interferon-γ (IFN-γ) signaling was assessed in the U937 monocytic cell line by measuring ICAM-1 surface expression by FACS (ICAM-1-APC, BD Bioscience).

[3] = tested on: Lck/AZP70; assay: Anti-CD3/CD28 T cell IL-2 production; conditions: Homo sapiens
Experimental: as §1

[4] = biological target: T1, VEGFR2 (Homo sapiens, UniProt P35968); assay: VEGF HUVEC phospho-VEGFR2
T1 construct: endogenous in cells; host or cells: HUVEC (human umbilical vein endothelial cells)
Experimental: Growth factor-dependent protein phosphorylation was detected in HeLa cells by staining permeabilized cells with phospho-specific antibodies and quantified by chemiluminescence (Luminator, Wallac Multilabel Counter; Perkin Elmer). Akt phosphorylation was measured following insulin stimulation and EGFR phosphorylation was measured following EGF stimulation (Phospho-AKT, Cell signaling technology, Danvers, Mass.; 1 μM Insulin, Millipore, Billerica, Mass.; Phospho-EGFR, tyr1173, clone 53A3, Cell Signaling Technology; 200 ng/ml recombinant human EGF, PeproTech, Hamburg, Germany). Human umbilical vein endothelial cells (HUVECs) were stimulated with VEGF and VEGFR2 phosphorylation was assessed by ELISA (100 ng/ml VEGF165, R&D Systems; Rabbit anti-phospho-VEGFR2 mAb, Cell Signaling Technology).

T1 sequence (P35968 20-1356): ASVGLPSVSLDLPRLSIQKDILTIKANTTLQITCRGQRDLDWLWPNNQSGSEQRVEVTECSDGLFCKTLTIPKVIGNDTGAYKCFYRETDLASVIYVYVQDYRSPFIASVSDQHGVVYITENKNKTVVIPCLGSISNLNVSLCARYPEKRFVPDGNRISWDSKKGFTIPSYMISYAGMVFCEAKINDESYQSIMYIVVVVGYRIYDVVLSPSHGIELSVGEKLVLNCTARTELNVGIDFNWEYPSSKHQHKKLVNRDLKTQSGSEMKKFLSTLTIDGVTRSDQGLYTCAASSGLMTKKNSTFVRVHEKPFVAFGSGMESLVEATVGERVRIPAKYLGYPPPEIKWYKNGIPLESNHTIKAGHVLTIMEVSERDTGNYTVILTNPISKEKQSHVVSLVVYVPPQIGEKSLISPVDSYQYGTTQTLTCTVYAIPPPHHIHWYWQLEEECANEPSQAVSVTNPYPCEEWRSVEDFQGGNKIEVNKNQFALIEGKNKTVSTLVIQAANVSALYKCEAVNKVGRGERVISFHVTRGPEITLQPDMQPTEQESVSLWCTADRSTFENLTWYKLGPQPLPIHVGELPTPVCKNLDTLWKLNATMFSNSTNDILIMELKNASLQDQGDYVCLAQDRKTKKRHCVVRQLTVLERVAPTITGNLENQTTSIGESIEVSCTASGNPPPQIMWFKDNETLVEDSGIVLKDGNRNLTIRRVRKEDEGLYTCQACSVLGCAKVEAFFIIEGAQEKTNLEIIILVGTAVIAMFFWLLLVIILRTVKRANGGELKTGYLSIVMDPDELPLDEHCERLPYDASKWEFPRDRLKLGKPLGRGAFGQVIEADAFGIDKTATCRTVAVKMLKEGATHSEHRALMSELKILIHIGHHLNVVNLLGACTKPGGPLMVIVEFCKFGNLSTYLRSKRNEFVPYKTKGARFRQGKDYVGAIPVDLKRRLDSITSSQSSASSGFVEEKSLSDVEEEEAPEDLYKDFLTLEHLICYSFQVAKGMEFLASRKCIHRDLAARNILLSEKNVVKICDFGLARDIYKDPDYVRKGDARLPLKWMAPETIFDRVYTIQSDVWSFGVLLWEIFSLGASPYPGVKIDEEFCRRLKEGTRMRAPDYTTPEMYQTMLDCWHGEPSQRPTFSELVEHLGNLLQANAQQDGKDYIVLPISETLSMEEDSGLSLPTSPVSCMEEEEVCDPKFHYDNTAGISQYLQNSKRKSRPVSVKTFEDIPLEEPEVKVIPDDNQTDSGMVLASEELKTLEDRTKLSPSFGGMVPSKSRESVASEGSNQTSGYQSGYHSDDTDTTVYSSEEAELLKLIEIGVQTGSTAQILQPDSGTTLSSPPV

Compound | inhibition of JAK2-dependent CHEP differentiation and survival in response to EPO [1] | EC50 ([1]; upstream kinase JAK2) [nM] | EC50 ([2]; whole blood, JAK1/2/Tyk2) [µM] | EC50 ([3]; upstream kinases Lck/AZP70, read-out: Anti-CD3/CD28 T cell IL-2 production EC50) [µM] | EC50 [4] [µM] | EC50 [1] [nM] | EC50 [2] [µM] | EC50 ([3]; read-out: Anti-CD3/CD28 T cell IL-2 production EC50) [µM]
COc1cc(Nc2ncc(C)c(Nc3ccc4oc(=O)[nH]c4c3)n2)cc(C)c1F [Compound I, 5-(2-(4-fluoro-3-methoxy-5-methylphenylamino)-5-methylpyrimidin-4-ylamino)benzo[d]oxazol-2(3H)-one] | limited inhibition | 490 ± 246 | 3.83 ± 1.52 | 2.87 ± 0.118 | 17.8 ± 3.87 |  |  | 
COc1cc(Nc2ncc(C)c(Nc3ccc4oc(=O)[nH]c4c3)n2)cc(C)c1C [Compound III, 5-(2-(3-methoxy-4,5-dimethylphenylamino)-5-methylpyrimidin-4-ylamino)benzol[d]oxazol-2-(3H)-one] | limited inhibition |  |  |  | 29.3 ± 14.3 | 1110 ± 339 | 6.69 ± 1.61 | 19.7 ± 2.9
